SMILES strings stand for the structures.

Drawing on ChEMBL document CHEMBL3870309, “Identification of new potent phthalazine derivatives with VEGFR-2 and EGFR kinase inhibitory activity” (Eur J Med Chem, 2016), this text covers IC50 for 29 molecules.

Test [1] addresses Vascular endothelial growth factor receptor 2 (Homo sapiens, UniProt P35968). Briefly: Inhibition of VEGFR-2 (unknown origin) using poly (Glu, Tyr) 4:1 as substrate after 1 hr by ELISA. (In general: ELISA stands for enzyme-linked immunosorbent assay.)
Test [2] addresses Epidermal growth factor receptor (Homo sapiens, UniProt P00533). The test can be described thus: Inhibition of EGFR (unknown origin) using poly (Glu, Tyr) 4:1 as substrate after 1 hr by ELISA.
A short description of test [3]: cells. Conditions: Homo sapiens, HeLa, 72 h.
Description: Antiproliferative activity against human HeLa cells after 72 hrs by Sulforhodamine B-stain assay

Vascular endothelial growth factor receptor 2, sequence (P35968 whole entry): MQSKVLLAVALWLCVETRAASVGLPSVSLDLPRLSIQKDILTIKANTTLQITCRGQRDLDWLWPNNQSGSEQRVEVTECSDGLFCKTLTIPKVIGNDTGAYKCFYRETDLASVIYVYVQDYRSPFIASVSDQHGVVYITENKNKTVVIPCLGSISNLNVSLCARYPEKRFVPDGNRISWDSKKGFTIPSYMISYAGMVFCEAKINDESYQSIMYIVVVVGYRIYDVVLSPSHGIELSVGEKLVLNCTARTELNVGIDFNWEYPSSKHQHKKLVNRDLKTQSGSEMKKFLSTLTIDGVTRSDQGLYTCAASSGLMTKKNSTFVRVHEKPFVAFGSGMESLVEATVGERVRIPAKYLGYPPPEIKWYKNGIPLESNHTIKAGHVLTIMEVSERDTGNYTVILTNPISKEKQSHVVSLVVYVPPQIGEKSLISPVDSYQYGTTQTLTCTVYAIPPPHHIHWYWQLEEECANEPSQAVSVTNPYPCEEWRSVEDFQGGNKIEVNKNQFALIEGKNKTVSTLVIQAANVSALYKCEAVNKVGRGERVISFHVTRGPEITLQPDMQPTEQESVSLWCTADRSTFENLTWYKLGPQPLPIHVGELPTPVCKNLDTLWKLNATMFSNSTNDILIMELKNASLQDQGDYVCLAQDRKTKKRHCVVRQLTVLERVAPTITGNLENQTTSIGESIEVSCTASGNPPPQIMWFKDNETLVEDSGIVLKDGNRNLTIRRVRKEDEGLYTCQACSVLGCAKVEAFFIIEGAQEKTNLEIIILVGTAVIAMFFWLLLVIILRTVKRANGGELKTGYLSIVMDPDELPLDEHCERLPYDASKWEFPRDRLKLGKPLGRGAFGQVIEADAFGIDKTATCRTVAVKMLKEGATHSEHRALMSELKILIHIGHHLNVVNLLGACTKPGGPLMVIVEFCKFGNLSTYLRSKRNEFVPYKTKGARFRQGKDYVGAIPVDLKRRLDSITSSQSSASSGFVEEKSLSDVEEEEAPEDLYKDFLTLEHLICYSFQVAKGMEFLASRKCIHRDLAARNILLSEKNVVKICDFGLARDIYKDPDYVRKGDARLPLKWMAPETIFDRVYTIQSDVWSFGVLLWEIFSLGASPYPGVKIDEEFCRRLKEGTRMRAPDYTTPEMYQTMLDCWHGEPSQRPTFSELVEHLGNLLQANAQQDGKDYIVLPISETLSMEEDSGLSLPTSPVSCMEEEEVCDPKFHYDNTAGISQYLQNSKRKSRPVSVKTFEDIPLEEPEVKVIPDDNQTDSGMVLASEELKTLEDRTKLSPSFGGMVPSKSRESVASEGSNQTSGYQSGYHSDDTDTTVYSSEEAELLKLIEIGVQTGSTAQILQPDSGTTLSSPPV
Epidermal growth factor receptor, sequence (P00533 whole entry): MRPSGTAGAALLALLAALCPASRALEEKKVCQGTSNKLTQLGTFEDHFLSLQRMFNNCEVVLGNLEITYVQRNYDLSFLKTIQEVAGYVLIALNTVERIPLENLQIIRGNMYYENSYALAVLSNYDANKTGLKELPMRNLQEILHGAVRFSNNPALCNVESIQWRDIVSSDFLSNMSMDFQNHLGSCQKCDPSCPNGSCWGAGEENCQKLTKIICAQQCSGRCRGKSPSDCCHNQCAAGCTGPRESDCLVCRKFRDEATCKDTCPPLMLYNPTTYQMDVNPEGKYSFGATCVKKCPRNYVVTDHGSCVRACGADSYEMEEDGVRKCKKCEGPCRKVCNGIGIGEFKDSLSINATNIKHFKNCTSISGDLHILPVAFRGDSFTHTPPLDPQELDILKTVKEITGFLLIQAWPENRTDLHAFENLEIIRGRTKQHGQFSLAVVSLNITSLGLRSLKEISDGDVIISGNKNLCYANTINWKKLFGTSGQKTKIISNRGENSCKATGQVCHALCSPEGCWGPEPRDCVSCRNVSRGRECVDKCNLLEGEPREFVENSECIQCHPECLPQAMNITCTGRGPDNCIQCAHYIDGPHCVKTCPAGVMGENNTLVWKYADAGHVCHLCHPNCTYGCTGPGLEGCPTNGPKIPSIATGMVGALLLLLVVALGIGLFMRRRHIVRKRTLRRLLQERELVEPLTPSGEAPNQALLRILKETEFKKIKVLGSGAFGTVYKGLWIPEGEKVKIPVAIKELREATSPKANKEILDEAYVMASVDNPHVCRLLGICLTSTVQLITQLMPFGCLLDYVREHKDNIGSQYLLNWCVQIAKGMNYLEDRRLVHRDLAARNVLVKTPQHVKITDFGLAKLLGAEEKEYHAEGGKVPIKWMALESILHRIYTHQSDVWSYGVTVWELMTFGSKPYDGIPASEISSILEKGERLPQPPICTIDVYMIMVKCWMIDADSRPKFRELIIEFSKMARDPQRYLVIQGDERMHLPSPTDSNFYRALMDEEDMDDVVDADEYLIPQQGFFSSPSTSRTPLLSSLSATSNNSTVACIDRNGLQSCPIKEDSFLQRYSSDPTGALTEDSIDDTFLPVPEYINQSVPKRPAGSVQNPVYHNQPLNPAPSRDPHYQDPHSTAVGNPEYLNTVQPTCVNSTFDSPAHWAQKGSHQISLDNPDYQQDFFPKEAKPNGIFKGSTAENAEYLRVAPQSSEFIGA

With `CCN=C(S)NNc1nncc2ccccc12`, the 50% inhibitory concentration (IC50) in test [1] was found to be 7.3 nM; in test [2], 76 nM; in test [3], 48 nM.
As for `CCN1C(=O)CS/C1=N/Nc1nncc2ccccc12`, the values for the IC50 in test [1], in test [2] and in test [3] were 3.6 nM, 47 nM and 65 nM, respectively.
Regarding `S=C(NNc1nncc2ccccc12)Nc1ccc(Cl)cc1`, the IC50 in test [1] is 6.1 nM; in test [2], 64 nM; in test [3], 20 nM.
The corresponding values for `COc1ccc(/C=C/C(=N/Nc2nncc3ccccc23)c2ccc(Cl)cc2)cc1` are 0.41 nM, 5.4 nM and 1.2 nM.
As for `Cc1cc(NS(=O)(=O)c2ccc(Nc3nncc4ccccc34)cc2)no1`, the values for the IC50 in test [1], in test [2] and in test [3] were 9.7 nM, 130 nM and 13 nM, respectively.
The matching figures for `Clc1ccc(/C=C/C(=N/Nc2nncc3ccccc23)c2ccccc2)cc1`: 0.55 nM, 4.6 nM and 2.6 nM.
The corresponding values for `C(=C\c1ccccc1)/C(=N/Nc1nncc2ccccc12)c1ccccc1` are 0.42 nM, 5.6 nM and 1.4 nM.
As for `CCCCNC(=S)NNc1nncc2ccccc12`, the IC50 came out at 4.5 nM in test [1], 52 nM in test [2] and 49 nM in test [3].
Regarding `CCOC(=O)c1ccc(Nc2nncc3ccccc23)cc1`, the figures for the IC50 in test [1], in test [2] and in test [3] were 0.54 nM, 4.4 nM and 2.7 nM, respectively.
The corresponding values for `O=S(=O)(Nc1ncccn1)c1ccc(Nc2nncc3ccccc23)cc1` are 8.5 nM, 86 nM and 14 nM.
As for `O=C1CS/C(=N/Nc2nncc3ccccc23)N1c1ccc(Cl)cc1`, the IC50 in test [1] came to 2.7 nM; in test [2] it was 42 nM; in test [3], 42 nM.
For the molecule `N#Cc1ccc(Nc2nncc3ccccc23)cc1`, the IC50 in test [1] was 0.43 nM; in test [2], 4.1 nM; in test [3], 1.5 nM.
On to `CCCCN1C(=O)CS/C1=N/Nc1nncc2ccccc12`, for which the IC50 in test [1] was determined as 1.2 nM; in test [2], 23 nM; in test [3], 22 nM.
The corresponding values for `S=C(NNc1nncc2ccccc12)Nc1ccccc1` are 6.2 nM, 65 nM and 39 nM.
With `NS(=O)(=O)c1ccc(Nc2nncc3ccccc23)cc1`, the IC50 in test [1] is 9.8 nM; in test [2], 140 nM; in test [3], 12 nM.
Consider `COc1ccc(NC(=S)NNc2nncc3ccccc23)cc1`, for which the IC50 in test [1] stood at 5.7 nM; in test [2], 53 nM; in test [3], 38 nM.
The matching figures for `O=C(O)c1ccc(Nc2nncc3ccccc23)cc1`: 0.68 nM, 6.2 nM and 3.92 nM.
The matching figures for `O=C1CS/C(=N/Nc2nncc3ccccc23)N1`: 4.4 nM, 51 nM and 57 nM.
Regarding `Cc1cc(C)nc(NS(=O)(=O)c2ccc(Nc3nncc4ccccc34)cc2)n1`, the IC50 in test [1] came out at 0.77 nM; in test [2] it was 6.7 nM; in test [3], 3.5 nM.
As to `Fc1ccc(/C=C/C(=N/Nc2nncc3ccccc23)c2ccccc2)cc1`, the IC50 in test [1] came to 0.88 nM; in test [3], 4.45 nM.
Regarding `Clc1ccc(C(/C=C/c2ccccc2)=N\Nc2nncc3ccccc23)cc1`, the IC50 in test [1] is 0.69 nM; in test [2], 6.3 nM; in test [3], 3.3 nM.
Consider `O=S(=O)(Nc1nccs1)c1ccc(Nc2nncc3ccccc23)cc1`, for which the IC50 was determined as 8.6 nM in test [1], 88 nM in test [2] and 15 nM in test [3].
The corresponding values for `COc1ccc(N2C(=O)CS/C2=N/Nc2nncc3ccccc23)cc1` are 2.4 nM, 36 nM and 34 nM.
The matching figures for `NC(=S)NNc1nncc2ccccc12`: 7.5 nM, 77 nM and 37 nM.
For the molecule `O=S(=O)(Nc1ccccn1)c1ccc(Nc2nncc3ccccc23)cc1`, the figures for the IC50 in test [1], in test [2] and in test [3] were 7.8 nM, 84 nM and 26 nM, respectively.
On to `Fc1ccc(Nc2nncc3ccccc23)cc1`, for which the IC50 in test [1] was determined as 0.67 nM; in test [2], 6 nM; in test [3], 2.8 nM.
The matching figures for `O=C1CS/C(=N/Nc2nncc3ccccc23)N1c1ccccc1`: 3.5 nM, 45 nM and 56 nM.
The matching figures for `Cc1ccc(C(/C=C/c2ccc(F)cc2)=N\Nc2nncc3ccccc23)cc1`: 0.7 nM, 6.5 nM and 3.4 nM.
Regarding `Oc1cc(O)c2cc(O)c(-c3cc(O)c(O)c(O)c3)[o+]c2c1` [DELPHINIDIN CHLORIDE], the 50% inhibitory concentration (IC50) in test [1] was determined as 5.09 nM; in test [2] it was 6.27 nM.

As usually defined, the IC50 is the concentration needed to halve the response being measured.
